A short description of this series: recombinant barcode read abundance after kanamycin selection (control-corrected) (log10(CPM+1)); higher = more efficient recombination; sequences stand for … in AGTGCAGAGAAAATCGGCCAGTTTTCTCTGCCTGCAGTCCGCATGCCGT…AGATTTATGCAGCGGACTGCCTTTCTCCCAAAGTGATAAACCGGACAGTATCATGGACCGGTTTTCCCGGTAATCCGTATTTGCAAGGTTGGTTTCACT; site = the 11-nt target. As for the experimental part: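 Pooled E. coli target-specificity screen for the IS621 bridge recombinase. Each library plasmid pairs an 11-nt target (CT core) with a bridge RNA whose target-binding loop (9-nt LTG + 4-nt RTG) is reprogrammed; the rest of the 177-nt WT IS621 bridge RNA scaffold is fixed. The plasmid is co-electroporated with a WT donor plasmid; recombinase is induced with 0.1 mM IPTG and recombinants are selected on kanamycin. Recombinant barcodes are sequenced, converted to CPM, averaged over two biological replicates and corrected by the unselected control CPM. Molecule = full bridge RNA written as DNA: LTG = specificity nt 1-9, RTG = reverse complement of specificity nt 8-11, in the WT scaffold.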
In the case of “ACACTGGCTTGGGTTCTAACCTGTTGCCT (site ACACTGGCTAG)”, the “recombinant barcode read abundance (log10)” value was 0.987.

For the sequence “ACACTGGCTTGGGTTCTAACCTGTTGCCT (site ACCCTGGCTAG)”, the “recombinant barcode read abundance (log10)” value is 0.0877.

On to “ACACTGGCTTGGGTTCTAACCTGTTGCCT (site ACGCTGGCTAG)”, for which the “recombinant barcode read abundance (log10)” value came to 0.025.

Take “ACACTGGCTTGGGTTCTAACCTGTTGCCT (site ACTCTGGCTAG)”: the “recombinant barcode read abundance (log10)” value turned out to be 0.

For the sequence “ACAGAGACTTGGGTTCTAACCTGTTGCAC (site ACAGAGACTGT)”, the “recombinant barcode read abundance (log10)” value was 1.76.

Consider “ACAGAGACTTGGGTTCTAACCTGTTGCAC (site ACAGAGACTTA)”, for which the “recombinant barcode read abundance (log10)” value was found to be 0.183.

With “ACAGATTCTTGGGTTCTAACCTGTTGCCT (site ACAGATTCTAG)”, the “recombinant barcode read abundance (log10)” value worked out at 1.73.

For the sequence “ACAGATTCTTGGGTTCTAACCTGTTGCCT (site ATAGAGTCTAG)”, the “recombinant barcode read abundance (log10)” value is 0.0143.

“ACAGGAGCTTGGGTTCTAACCTGTTGCGG (site ACACGACCTCC)”: the “recombinant barcode read abundance (log10)” value was 0.154.

“ACAGGAGCTTGGGTTCTAACCTGTTGCGG (site ACAGGAGCTCC)”: the “recombinant barcode read abundance (log10)” value was found to be 2.61.

In the case of “ACAGGATCTTGGGTTCTAACCTGTTGCTT (site ACAGAATCTAG)”, the “recombinant barcode read abundance (log10)” value came to 0.55.

Turning to “ACAGGATCTTGGGTTCTAACCTGTTGCTT (site ACAGGATCTAA)”, the “recombinant barcode read abundance (log10)” value turned out to be 2.18.

As for “ACAGGTTCTTGGGTTCTAACCTGTTGCCT (site AAAGGTTCTAG)”, the “recombinant barcode read abundance (log10)” value was 0.0508.

Take “ACAGGTTCTTGGGTTCTAACCTGTTGCCT (site ACAGGTTCTAG)”: the “recombinant barcode read abundance (log10)” value is 2.24.

As to “ACAGGTTCTTGGGTTCTAACCTGTTGCCT (site AGAGGTTCTAG)”, the “recombinant barcode read abundance (log10)” value was 0.283.

Turning to “ACAGGTTCTTGGGTTCTAACCTGTTGCCT (site ATAGGTTCTAG)”, the “recombinant barcode read abundance (log10)” value is 0.0396.

For “ACAGTAGCTTGGGTTCTAACCTGTTGCCG (site ACAGTAGCTCC)”, the “recombinant barcode read abundance (log10)” value was 0.189.

For the sequence “ACAGTAGCTTGGGTTCTAACCTGTTGCCG (site ACAGTAGCTCG)”, the “recombinant barcode read abundance (log10)” value amounted to 0.862.

Turning to “ACATACACTTGGGTTCTAACCTGTTGCCT (site ACATACACTAG)”, the “recombinant barcode read abundance (log10)” value turned out to be 0.991.

For the sequence “ACATACACTTGGGTTCTAACCTGTTGCCT (site ACCTACCCTAG)”, the “recombinant barcode read abundance (log10)” value worked out at 0.298.

“ACATCAACTTGGGTTCTAACCTGTTGCCT (site ACATCAACTAG)”: the “recombinant barcode read abundance (log10)” value was 0.807.

On to “ACATCAACTTGGGTTCTAACCTGTTGCCT (site ACCTCAACTAG)”, for which the “recombinant barcode read abundance (log10)” value worked out at 0.0149.

In the case of “ACATCAACTTGGGTTCTAACCTGTTGCCT (site ACGTCAACTAG)”, the “recombinant barcode read abundance (log10)” value turned out to be 0.0953.

Regarding “ACATCAACTTGGGTTCTAACCTGTTGCCT (site ACTTCAACTAG)”, the “recombinant barcode read abundance (log10)” value came out at 0.0926.

“ACATCTACTTGGGTTCTAACCTGTTGCTA (site ACATCTACTTA)”: the “recombinant barcode read abundance (log10)” value amounted to 0.145.

For the sequence “ACATCTACTTGGGTTCTAACCTGTTGCTA (site ACTTCTACTTA)”, the “recombinant barcode read abundance (log10)” value was 0.0475.

On to “ACATGGTCTTGGGTTCTAACCTGTTGCGT (site ACATGGTCTAC)”, for which the “recombinant barcode read abundance (log10)” value was determined as 2.92.

With “ACATGGTCTTGGGTTCTAACCTGTTGCGT (site ACTGGGTCTAC)”, the “recombinant barcode read abundance (log10)” value was determined as 0.115.

Regarding “ACATGTCCTTGGGTTCTAACCTGTTGCCT (site ACATGTCCTAA)”, the “recombinant barcode read abundance (log10)” value was determined as 0.0846.

In the case of “ACATGTCCTTGGGTTCTAACCTGTTGCCT (site ACATGTCCTAC)”, the “recombinant barcode read abundance (log10)” value was 0.0127.

In the case of “ACATGTCCTTGGGTTCTAACCTGTTGCCT (site ACATGTCCTAG)”, the “recombinant barcode read abundance (log10)” value is 0.828.

In the case of “ACATGTCCTTGGGTTCTAACCTGTTGCCT (site ACATGTCCTAT)”, the “recombinant barcode read abundance (log10)” value came to 0.00753.

As to “ACATGTCCTTGGGTTCTAACCTGTTGCTT (site ACATGTCCTAA)”, the “recombinant barcode read abundance (log10)” value was determined as 0.333.

“ACATGTCCTTGGGTTCTAACCTGTTGCTT (site ACATGTCCTAC)”: the “recombinant barcode read abundance (log10)” value is 0.0155.

Regarding “ACATGTCCTTGGGTTCTAACCTGTTGCTT (site ACATGTCCTAG)”, the “recombinant barcode read abundance (log10)” value is 0.136.

As for “ACATGTCCTTGGGTTCTAACCTGTTGCTT (site ACATGTCCTAT)”, the “recombinant barcode read abundance (log10)” value was found to be 0.287.

Take “ACATGTGCTTGGGTTCTAACCTGTTGCCT (site ACAGGTGCTAG)”: the “recombinant barcode read abundance (log10)” value came to 0.0246.

For the sequence “ACATGTGCTTGGGTTCTAACCTGTTGCCT (site ACATGTGCTAG)”, the “recombinant barcode read abundance (log10)” value is 1.66.

Regarding “ACATTAGCTTGGGTTCTAACCTGTTGCTG (site ACAATAGCTCA)”, the “recombinant barcode read abundance (log10)” value was 0.182.

Take “ACATTAGCTTGGGTTCTAACCTGTTGCTG (site ACACTAGCTCA)”: the “recombinant barcode read abundance (log10)” value was 0.0561.

For “ACATTAGCTTGGGTTCTAACCTGTTGCTG (site ACAGTAGCTCA)”, the “recombinant barcode read abundance (log10)” value amounted to 0.18.

As to “ACATTAGCTTGGGTTCTAACCTGTTGCTG (site ACATTAGCTCA)”, the “recombinant barcode read abundance (log10)” value was determined as 0.603.

As for “ACATTGTCTTGGGTTCTAACCTGTTGCGG (site ACAATGTCTCC)”, the “recombinant barcode read abundance (log10)” value came to 0.13.

Take “ACATTGTCTTGGGTTCTAACCTGTTGCGG (site ACACTGTCTCC)”: the “recombinant barcode read abundance (log10)” value was 0.236.

As for “ACATTGTCTTGGGTTCTAACCTGTTGCGG (site ACAGTGTCTCC)”, the “recombinant barcode read abundance (log10)” value came out at 0.00595.

With “ACATTGTCTTGGGTTCTAACCTGTTGCGG (site ACATTGTCTCC)”, the “recombinant barcode read abundance (log10)” value is 1.1.

As to “ACCAACACTTGGGTTCTAACCTGTTGCTT (site ACCAACACTAA)”, the “recombinant barcode read abundance (log10)” value stood at 0.115.

Regarding “ACCAACACTTGGGTTCTAACCTGTTGCTT (site TATTTAGCTCC)”, the “recombinant barcode read abundance (log10)” value worked out at 0.259.

As to “ACCACGCCTTGGGTTCTAACCTGTTGCCT (site ACCACGCCTAG)”, the “recombinant barcode read abundance (log10)” value was 0.342.

Turning to “ACCACGCCTTGGGTTCTAACCTGTTGCCT (site ATCACGCCTAG)”, the “recombinant barcode read abundance (log10)” value worked out at 0.0537.

As for “ACCAGCCCTTGGGTTCTAACCTGTTGCTG (site ACCAGCCCTCA)”, the “recombinant barcode read abundance (log10)” value came to 1.38.

In the case of “ACCAGCCCTTGGGTTCTAACCTGTTGCTG (site TGATATTCTAG)”, the “recombinant barcode read abundance (log10)” value was 0.0743.

“ACCAGTCCTTGGGTTCTAACCTGTTGCTA (site ACCAGTCCTCA)”: the “recombinant barcode read abundance (log10)” value turned out to be 0.065.

Consider “ACCAGTCCTTGGGTTCTAACCTGTTGCTA (site ACCAGTCCTTA)”, for which the “recombinant barcode read abundance (log10)” value was determined as 0.934.

Regarding “ACCATACCTTGGGTTCTAACCTGTTGCAT (site ACCATACCTAT)”, the “recombinant barcode read abundance (log10)” value amounted to 0.385.

For “ACCATACCTTGGGTTCTAACCTGTTGCAT (site TAGGATTCTGC)”, the “recombinant barcode read abundance (log10)” value came to 0.124.

As for “ACCCAATCTTGGGTTCTAACCTGTTGCAC (site ACCCAATCTGT)”, the “recombinant barcode read abundance (log10)” value was 1.94.

In the case of “ACCCAATCTTGGGTTCTAACCTGTTGCAC (site TAGGCTACTTG)”, the “recombinant barcode read abundance (log10)” value stood at 0.0478.

As to “ACCCAGCCTTGGGTTCTAACCTGTTGCCT (site ACCCAGCCTAA)”, the “recombinant barcode read abundance (log10)” value is 0.146.

“ACCCAGCCTTGGGTTCTAACCTGTTGCCT (site ACCCAGCCTAC)”: the “recombinant barcode read abundance (log10)” value is 1.27.

As for “ACCCAGCCTTGGGTTCTAACCTGTTGCCT (site ACCCAGCCTAG)”, the “recombinant barcode read abundance (log10)” value was determined as 1.44.

Regarding “ACCCAGCCTTGGGTTCTAACCTGTTGCCT (site ACCCAGCCTAT)”, the “recombinant barcode read abundance (log10)” value was found to be 0.522.

Turning to “ACCCAGTCTTGGGTTCTAACCTGTTGCGG (site ACCCAGTCTCC)”, the “recombinant barcode read abundance (log10)” value worked out at 2.08.

On to “ACCCAGTCTTGGGTTCTAACCTGTTGCGG (site GTAAGTGCTAT)”, for which the “recombinant barcode read abundance (log10)” value came to 0.151.

As to “ACCCCGTCTTGGGTTCTAACCTGTTGCCT (site ACCCCGTCTAG)”, the “recombinant barcode read abundance (log10)” value was found to be 1.65.

For the sequence “ACCCCGTCTTGGGTTCTAACCTGTTGCCT (site ACCCTGTCTCG)”, the “recombinant barcode read abundance (log10)” value was determined as 0.0376.

With “ACCCTGTCTTGGGTTCTAACCTGTTGCCG (site ACCCCGTCTAG)”, the “recombinant barcode read abundance (log10)” value is 0.0728.

Turning to “ACCCTGTCTTGGGTTCTAACCTGTTGCCG (site ACCCTGTCTCG)”, the “recombinant barcode read abundance (log10)” value was 2.44.

For “ACCCTTACTTGGGTTCTAACCTGTTGCCT (site AACCTTACTAG)”, the “recombinant barcode read abundance (log10)” value was found to be 0.0611.

With “ACCCTTACTTGGGTTCTAACCTGTTGCCT (site ACCCTTACTAG)”, the “recombinant barcode read abundance (log10)” value was found to be 1.07.

Turning to “ACCCTTACTTGGGTTCTAACCTGTTGCCT (site AGCCTTACTAG)”, the “recombinant barcode read abundance (log10)” value amounted to 0.00699.

For “ACCCTTACTTGGGTTCTAACCTGTTGCCT (site ATCCTTACTAG)”, the “recombinant barcode read abundance (log10)” value is 0.142.

Turning to “ACCGAGACTTGGGTTCTAACCTGTTGCCT (site ACCGAGACTAG)”, the “recombinant barcode read abundance (log10)” value came to 0.224.

(Values after the supplement of paper PMC11208160.)
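Note: IS621 recombinase and bridge RNA in Escherichia coli cells.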
